Data: US20230372361A1, “USE OF OXYGENATED CHOLESTEROL SULFATES FOR TREATING INFLAMMATORY CONDITIONS” (Durect Corporation, priority 2020, published 2023)

Tests used:
[1] = Metabolite profiling of plasma and feces after oral dose (radio-HPLC, HPLC/MS); design: species or system rats; conditions: Sprague Dawley, rat, in vivo, 75 mg/kg
Method: Radiolabeled components in plasma and feces extracts were profiled and identified using radio-high performance liquid chromatography (HPLC) and high performance liquid chromatography/mass spectrometry (HPLC/MS) methods.
Plasma pools were prepared for Group 1 (75 mg/kg, [14C]-25HC3S) samples collected at 2, 4, and 6 hours post-dose. […] One metabolite M29 was identified as 25-hydroxycholesterol with 37% ROI and a concentration of 1233 ng-equiv./g.
Feces pools were prepared for Group 2 (75 mg/kg, [^14C]-25HC3S) samples collected from 0 to 24, 24 to 48, 48 to 72, 72 to 96, 96 to 120, 120 to 144, and 144 to 168 hours post-dose. A total of eleven metabolites were identified. None of the metabolites were present at ≥5% of dose. Metabolites present at 2-5% of dose were M1(4.5% of total dose and 1%-69% ROI), M3 (4.6% of total dose and 1%-44% ROI), M4 (2.0% of total dose and 0%-10% ROI), M8 (3.1% of total dose and 1%-46% ROI), M29 (1.9% of total dose and 0%-2% ROI), and M30 (3.3% of total dose and 0%-5% ROI).

[2] = test system: DNMT1/3a/3b; assay: DNMT1/3a/3b activities, overall statements; format: biochemical; conditions: for effect on enzymatic activities: controls
Method: For the DNMT1 activity assay, the substrate solution, 0.001 mg/ml Poly(dI-dC):Poly(dI-dC) in 50 mM Tris-HCl, pH 7.5, 50 mM NaCl, 5 mM EDTA, 5 mM DTT, 1 mM PMSF, 5% glycerol, 0.01% Brij35, 1% DMSO was used. For the DNMT3a/3b activity assay, 0.0075 mg/ml Lambda DNA in 50 mM Tris-HCl, pH 7.5, 50 mM NaCl, 5 mM EDTA, 5 mM DTT, 1 mM PMSF, 5% glycerol, 1% DMSO, was used. The indicated DNMT1, DNMT3a, or DNMT3b was added to the appropriate substrate solution and gently mixed. […] The mixtures were first incubated for 15 min, then ^3H-SAM was added to the reaction mixture to initiate the reaction, and the mixture was incubated for 60 min at 30° C. Following incubation, the reaction mixture was finally transferred to filter-paper for detection of radioactivity counts.

[3] = Metabolite profiling of plasma, urine, feces after intravenous dose (HPLC radiodetection, MS); format: in vivo, rats; conditions: iv 10 mg/kg
Method: Plasma pools were made from Group 1 rats at the 0.083, 0.25, 0.5, and 1-hour collection time points.
Urine pools were prepared for Group 2 at 0 to 6 and 6 to 12 hours post-dose. […] Four metabolites present at <10% relative observed intensity in at least 1 sample were M7 (<5% relative observed intensity), M16 (<3% relative observed intensity), M19 (<6% relative observed intensity), and M25 (<5% relative observed intensity).
Feces pools were prepared for Group 2 at 0 to 12, 12 to 24, and 24 to 48 hours post-dose.

## C[C@H](CCCC(C)(C)O)[C@H]1CC[C@H]2[C@@H]3CC=C4C[C@@H](O)CC[C@]4(C)[C@H]3CC[C@]12C [M29, 25-hydroxycholesterol]
[1]
  ROI in feces: 0-2%

## C[C@@H](CO)CCC[C@@H](C)[C@H]1CC[C@H]2[C@@H]3CC=C4C[C@@H](O)CC[C@]4(C)[C@H]3CC[C@]12C [27HC, 27-Hydroxycholesterol]
[2]
  effect on other enzymes (than DNMT-1): had no effect on other enzymes

## CC(C)CCC[C@@H](C)[C@H]1CC[C@H]2[C@@H]3CC=C4C[C@@H](OS(=O)(=O)O)CC[C@]4(C)[C@H]3CC[C@]12C [Xol3S, 5-cholesten-3β-ol, 3-sulfate]
[2]
  effect on enzymatic activities: did not significantly affect enzymatic activities

## C[C@H](CCCC(C)(C)O)[C@H]1CC[C@H]2[C@@H]3CC=C4C[C@@H](O)CC[C@]4(C)[C@H]3CC[C@]12C [25HC, 25-Hydroxycholesterol, reference compound]
[3]
  detection in plasma, urine, or feces samples: Neither desmosterol sulfate nor 25-hydroxycholesterol was detected

## CC(C)CCC[C@@H](C)[C@H]1CC[C@H]2[C@@H]3CC=C4C[C@@H](O)CC[C@]4(C)[C@H]3CC[C@]12C [Xol, Cholesterol]
[2]
  effect on enzymatic activities: did not significantly affect enzymatic activities

## desmosterol sulfate
[3]
  detection in plasma, urine, or feces samples: Neither desmosterol sulfate nor 25-hydroxycholesterol was detected
